Experimental data as given in PMC10510716.

Assay: Paal-Knorr-like closure of a side-chain 1,4-diketone (DOP, unmasked from 5-substituted furan in TFA/m-cresol 9:1) with a side-chain alkylhydrazine (Nu1), then air oxidation to a pyridazinium staple; crude redissolved in mQ water, pH adjusted to ~7.5
Conditions: the molecule shown is the open-chain precursor, 29-membered ring, pH ~7.5, 5.0 mM

SMILES | ring closure, overall yield
CC(=O)CCC(=O)CCC(=O)NCCC[C@H](NC(=O)[C@H](Cc1ccc(O)cc1)NC(C)=O)C(=O)N[C@@H](CCCNC(=N)N)C(=O)NCC(=O)N[C@@H](CC(=O)O)C(=O)N[C@@H](CCCNC(=O)CNN)C(=O)N[C@@H](CO)C(=O)N[C@@H](Cc1c[nH]c2ccccc12)C(N)=O [Ac-Y-Orn(4,7-dioxooctanoyl)*-R-G-D-Orn(COCH2NHNH2)*-S-W-NH2] | 16.8%
CC[C@H](C)[C@H](NC(=O)[C@H](CCCNC(=O)CNN)NC(=O)c1ccc(NC(C)=O)cc1)C(=O)N[C@@H](C)C(=O)N[C@@H](C)C(=O)N[C@@H](CC(C)C)C(=O)N[C@@H](CCCCN)C(=O)N[C@@H](CCC(=O)O)C(=O)N[C@@H](CCCCN)C(=O)N[C@H](C(=O)N[C@@H](CCCNC(=O)CNN)C(=O)N[C@@H](C)C(=O)N[C@@H](CC(C)C)C(=O)N[C@@H](CCCCN)C(=O)N[C@@H](CCCNC(=O)CCC(=O)CCC(C)=O)C(=O)N[C@@H](CCCCN)C(=O)N[C@H](C(=O)N[C@@H](C)C(=O)N[C@@H](C)C(=O)N[C@@H](CC(C)C)C(=O)N[C@@H](CCCCN)C(=O)N[C@@H](CCC(=O)O)C(N)=O)[C@@H](C)CC)[C@@H](C)CC | 6.2%
CC[C@H](C)[C@H](NC(=O)[C@H](CCC(=O)O)NC(=O)[C@H](CCCNC(=N)N)NC(=O)CNC(=O)[C@H](CCCCN)NC(=O)[C@H](CC(C)C)NC(=O)[C@H](Cc1c[nH]cn1)NC(=O)CNC(=O)[C@@H]1CCCN1C(C)=O)C(=O)NCC(=O)N[C@@H](CC(C)C)C(=O)N[C@@H](Cc1c[nH]c2ccccc12)C(=O)N[C@@H](Cc1ccc(O)cc1)C(=O)N[C@@H](C)C(=O)N[C@@H](CCCNC(=O)CNN)C(=O)N[C@@H](CCCCN)C(=O)N[C@@H](CCC(N)=O)C(=O)NCC(=O)N[C@@H](CCCNC(=O)CCC(=O)CCC(=O)c1ccc(OC)cc1)C(=O)N[C@@H](CCCCN)C(=O)N[C@@H](CC(N)=O)C(=O)N[C@@H](CCCCN)C(N)=O | 10.9%
COc1ccc(C(=O)CCC(=O)CCC(=O)NCCC[C@H](NC(=O)[C@H](Cc2ccc(O)cc2)NC(C)=O)C(=O)N[C@@H](CCCNC(=N)N)C(=O)NCC(=O)N[C@@H](CC(=O)O)C(=O)N[C@@H](CCCNC(=O)CNN)C(=O)N[C@@H](CO)C(=O)N[C@@H](Cc2c[nH]c3ccccc23)C(N)=O)cc1 | 13.5%

Same assay, conditions: the molecule shown is the open-chain precursor, 38-membered ring, pH ~7.5, 5.0 mM

SMILES | ring closure, overall yield
COc1ccc(C(=O)CCC(=O)CCC(=O)NCCC[C@H](NC(C)=O)C(=O)N[C@@H](Cc2c[nH]c3ccccc23)C(=O)N[C@@H](CCCNC(=N)N)C(=O)NCC(=O)N[C@@H](CC(=O)O)C(=O)N[C@@H](Cc2ccc(O)cc2)C(=O)N[C@@H](CO)C(=O)N[C@@H](CCCNC(=O)CNN)C(N)=O)cc1 | 13.9%
CC[C@H](C)[C@H](NC(=O)[C@H](CCCNC(=O)CNN)NC(=O)c1ccc(NC(C)=O)cc1)C(=O)N[C@@H](C)C(=O)N[C@@H](C)C(=O)N[C@@H](CC(C)C)C(=O)N[C@@H](CCCCN)C(=O)N[C@@H](CCC(=O)O)C(=O)N[C@@H](CCCCN)C(=O)N[C@H](C(=O)N[C@@H](CCCNC(=O)CNN)C(=O)N[C@@H](C)C(=O)N[C@@H](CC(C)C)C(=O)N[C@@H](CCCCN)C(=O)N[C@@H](CCC(=O)O)C(=O)N[C@@H](CCCCN)C(=O)N[C@H](C(=O)N[C@@H](CCCNC(=O)CCC(=O)CCC(C)=O)C(=O)N[C@@H](C)C(=O)N[C@@H](CC(C)C)C(=O)N[C@@H](CCCCN)C(=O)N[C@@H](CCC(=O)O)C(N)=O)[C@@H](C)CC)[C@@H](C)CC | 6.9%
CC[C@H](C)[C@H](NC(=O)[C@H](CCCNC(=O)CCC(=O)CCC(C)=O)NC(=O)[C@H](CCCNC(=N)N)NC(=O)CNC(=O)[C@H](CCCCN)NC(=O)[C@H](CC(C)C)NC(=O)[C@H](Cc1c[nH]cn1)NC(=O)CNC(=O)[C@@H]1CCCN1C(C)=O)C(=O)NCC(=O)N[C@@H](CC(C)C)C(=O)N[C@@H](Cc1c[nH]c2ccccc12)C(=O)N[C@@H](Cc1ccc(O)cc1)C(=O)N[C@@H](C)C(=O)N[C@@H](CCCNC(=O)CNN)C(=O)N[C@@H](CCCCN)C(=O)N[C@@H](CCC(N)=O)C(=O)NCC(=O)N[C@@H](CCC(N)=O)C(=O)N[C@@H](CCCCN)C(=O)N[C@@H](CC(N)=O)C(=O)N[C@@H](CCCCN)C(N)=O | 16.8%
